pIC50: −log10 of the molar value.
What was measured:
[1] = target: T1, BRD4(1) protein (Homo sapiens, UniProt O60885); test: AlphaScreen assay: disruption of the interaction of BRD4(1) and biotinylated acetylated peptide; type: binding; conditions: BRD4(1) protein with H4KAc4-biotin peptide, 20° C.
T1 construct: BRD4(1) protein, 500 nM; inferred from the use of nickel acceptor beads
Procedure, shortened: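 BRD4(1) at 500 nM was incubated with biotinylated tetra-acetylated H4 peptide (50 nM) in MOPS/CHAPS/NaF/BSA buffer, pH 7.4, with streptavidin donor and nickel acceptor beads (50 μg/mL each). Incubation ran 1 h at 20 °C in the dark before AlphaScreen signal read-out.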

[2] = target: T1, BRD4(1) protein; test: TSA assay: thermodynamic stability of BRD4(1); type: binding; conditions: SYPRO Orange, 30° C. to 80° C.
Procedure, shortened: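 Thermal shift of BRD4(1) protein (100 μM stock) with compound (400 μM stock) in MOPS 50 mM/NaCl 150 mM/10% glycerol, pH 7.5, SYPRO Orange 1:1000, pre-incubated on ice 30 min, DMSO <2%. Melting ramp 30–80 °C at 0.5 °C/min with fluorescence read every 0.5 °C; ΔTm reported.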

| Compound | pIC50 [1] | TSA ΔTm [2] [°C] |
| --- | --- | --- |
| CCN1C(=O)c2cccc3c(S(=O)(=O)NCCCN4CCN(C)CC4)ccc1c23 [Example 101, 1-ethyl-N-(3-(4-methylpiperazin-1-yl)propyl)-2-oxo-1,2-dihydrobenzo[cd]indole-6-sulfonamide] | 5.38 | 5 |
| CCN1C(=O)c2cccc3c(S(=O)(=O)NCCN4CCCCC4)ccc1c23 [Example 102, 1-ethyl-2-oxo-N-(2-(piperidin-1-yl)ethyl)-1,2-dihydrobenzo[cd]indole-6-sulfonamide] | < 4.70 | 2 |
| CCOC(CCCNS(=O)(=O)c1ccc2c3c(cccc13)C(=O)N2CC)OCC [Example 103, N-(4,4-diethoxybutyl)-1-ethyl-2-oxo-1,2-dihydrobenzo[cd]indole-6-sulfonamide] | < 4.70 | 3 |
| CCOC(=O)CCNS(=O)(=O)c1ccc2c3c(cccc13)C(=O)N2CC [Example 104, ethyl 3-(1-ethyl-2-oxo-1,2-dihydrobenzo[cd]indole-6-sulfonamido)propanoate] | < 4.70 | 3 |
| CCN1C(=O)c2cccc3c(S(=O)(=O)NCC4CCCN4CC)ccc1c23 (stereo not drawn) [Example 105, 1-ethyl-N-((1-ethylpyrrolidin-2-yl)methyl)-2-oxo-1,2-dihydrobenzo[cd]indole-6-sulfonamide] | < 4.70 | 1.7 |
| CCN1C(=O)c2cccc3c(S(=O)(=O)NC4CCN(C)CC4)ccc1c23 [Example 106, 1-ethyl-N-(1-methylpiperidin-4-yl)-2-oxo-1,2-dihydrobenzo[cd]indole-6-sulfonamide] | < 4.70 | 2 |
| CCN1C(=O)c2cccc3c(S(=O)(=O)NC4CCCCCC4)ccc1c23 [Example 107, N-cycloheptyl-1-ethyl-2-oxo-1,2-dihydrobenzo[cd]indole-6-sulfonamide] | 6.35 | 7 |
| CCN1C(=O)c2cccc3c(S(=O)(=O)NC4CCOCC4)ccc1c23 [Example 108, 1-ethyl-2-oxo-N-(tetrahydro-2H-pyran-4-yl)-1,2-dihydrobenzo[cd]indole-6-sulfonamide] | 5.92 | 7 |
| CCN1C(=O)c2cccc3c(S(=O)(=O)NCCN4CCN(C(=O)OC(C)(C)C)CC4)ccc1c23 [Example 109, tert-butyl 4-(2-(1-ethyl-2-oxo-1,2-dihydrobenzo[cd]indole-6-sulfonamido)ethyl)piperazine-1-carboxylate] | 5.08 | 1 |
| CN1C(=O)c2cccc3c(S(=O)(=O)NC4CCCCC4)ccc1c23 [Example 110, N-cyclohexyl-1-methyl-2-oxo-1,2-dihydrobenzo[cd]indole-6-sulfonamide] | < 4.70 | 1 |
| CCCCNS(=O)(=O)c1ccc2c3c(cccc13)C(=O)N2C [Example 111, N-butyl-1-methyl-2-oxo-1,2-dihydrobenzo[cd]indole-6-sulfonamide] | 4.81 | 5 |
| CCCN1C(=O)c2cccc3c(S(=O)(=O)NC4CCCCC4)ccc1c23 [Example 112, N-cyclohexyl-2-oxo-1-propyl-1,2-dihydrobenzo[cd]indole-6-sulfonamide] | 5.28 | 4 |
| CCCNS(=O)(=O)c1ccc2c3c(cccc13)C(=O)N2CCC [Example 113, 2-oxo-N,1-dipropyl-1,2-dihydrobenzo[cd]indole-6-sulfonamide] | < 4.70 | 3 |
| CCCCNS(=O)(=O)c1ccc2c3c(cccc13)C(=O)N2CCC [Example 114, N-butyl-2-oxo-1-propyl-1,2-dihydrobenzo[cd]indole-6-sulfonamide] | < 4.70 | 3 |

The remaining lines, values ahead:

| pIC50 [1] | TSA ΔTm [2] [°C] | Compound |
| --- | --- | --- |
| < 4.70 | 1 | CCCCNS(=O)(=O)c1ccc2c3c(cccc13)C(=O)N2 [Example 115, N-butyl-2-oxo-1,2-dihydrobenzo[cd]indole-6-sulfonamide] |
| < 4.70 | 0 | CCCCNS(=O)(=O)c1ccc2c3c(cccc13)C(=O)N2CC(C)C [Example 116, N-butyl-1-isobutyl-2-oxo-1,2-dihydrobenzo[cd]indole-6-sulfonamide] |
| < 4.70 | 0 | CC(C)CN1C(=O)c2cccc3c(S(=O)(=O)NC4CCCCC4)ccc1c23 [Example 117, N-cyclohexyl-1-isobutyl-2-oxo-1,2-dihydrobenzo[cd]indole-6-sulfonamide] |
| < 4.70 | 2 | O=C1Nc2ccc(S(=O)(=O)NC3CCCCC3)c3cccc1c23 [Example 118, N-cyclohexyl-2-oxo-1,2-dihydrobenzo[cd]indole-6-sulfonamide] |
| 5.26 | 3 | CCN1C(=O)c2cccc3c(S(=O)(=O)Nc4cccc(C(C)=O)c4)ccc1c23 [Example 119, N-(3-acetylphenyl)-1-ethyl-2-oxo-1,2-dihydrobenzo[cd]indole-6-sulfonamide] |
| 5.47 | 3.3 | CCN1C(=O)c2cccc3c(S(=O)(=O)Nc4ccc(Cl)cc4)ccc1c23 [Example 120, N-(4-chlorophenyl)-1-ethyl-2-oxo-1,2-dihydrobenzo[cd]indole-6-sulfonamide] |
| 5.96 | 7.5 | CCN1C(=O)c2cccc3c(S(=O)(=O)Nc4ccccc4)ccc1c23 [Example 121, 1-ethyl-2-oxo-N-phenyl-1,2-dihydrobenzo[cd]indole-6-sulfonamide] |
| 5.72 | 5.1 | CCN1C(=O)c2cccc3c(S(=O)(=O)Nc4ccccc4Cl)ccc1c23 [Example 122, N-(2-chlorophenyl)-1-ethyl-2-oxo-1,2-dihydrobenzo[cd]indole-6-sulfonamide] |
| 5.45 | 3.3 | CCN1C(=O)c2cccc3c(S(=O)(=O)Nc4cccc(Cl)c4)ccc1c23 [Example 123, N-(3-chlorophenyl)-1-ethyl-2-oxo-1,2-dihydrobenzo[cd]indole-6-sulfonamide] |
| 6.74 | 11.5 | (+)-JQ1 [reference compound] |

Reference: patent publication US10183010B2, “2-oxo-1,2-dihydrobenzo[cd]indole compound and use thereof” (Guangzhou Institutes of Biomedicine and Health, Chinese …, priority 2015, dated 2019)
